The test system of test [1] is mouse model of multiple sclerosis. As to conditions: in vivo administration; cited from earlier work.
Test [2] has as its system SK-N-SH human neuroblastoma cells. In words: Serum Deprivation/JC-1 Mitochondrial Membrane Potential (MMP) Assay. Format: cell-based. Particulars: Homo sapiens; for activation at 3 µM: single dose 3 μM, JC-1 ratio normalized to peak value for 10 μM dimebolin (n=2-4), read-out: JC-1 max % (@ 3 μM); for activation at 3 µM / Emax: serum deprivation; for EC50 / Emax: SK-N-SH; for EC50: 18 h, serum deprivation ~18 hours, JC-1 ratio normalized to peak value for 10 μM dimebolin, single curve fit to mean data of n=2-3; for Emax: percent maximal intensity in JC-1 ratio normalized to peak value for 10 μM dimebolin, read-out: JC-1 max %. The gist of the method:
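SK-N-SH cells serum-deprived ~18 h with compound, then stained with JC-1 for 40 min at 37 °C; red (560/595 nm) to green (485/535 nm) ratio reports membrane potential. Response normalized to peak from 10 μM dimebolin; EC50 from fit to mean of n=2–3, or single-dose 3 μM; DMSO ≤1%.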

Test [3] relates to patients with mild-to-moderate Alzheimer's disease. As to conditions: 20 mg three times a day (60 mg/day); cited from earlier work.

Take `O=C1C=C(c2ccccc2)C(=O)N1c1cccc(Cl)c1` [1-(3-chlorophenyl)-3-phenyl-pyrrole-2,5-dione]: the “development of the disease” value in test [1] is on record as “significantly prevented the development of the disease”.

Consider `NCCc1cn(C(=O)N2Cc3ccccc3N3CCN(Cc4ccccc4)CC3C2)cn1` (centres unmarked) [Example 154, [4-(2-aminoethyl)-1H-imidazol-1-yl](3-benzyl-1,2,3,4,4a,5-hexahydropyrazino[1,2-a][1,4]benzodiazepin-6(7H)-yl)methanone], for which the activation at 3 µM in test [2] amounted to 49%.

Take `O=C(NCc1ccncc1)N1Cc2ccccc2N2CCN(Cc3ccccc3)CC2C1` (centres unmarked) [Example 155, 3-benzyl-N-(pyridin-4-ylmethyl)-1,2,3,4,4a,5-hexahydropyrazino[1,2-a][1,4]benzodiazepine-6(7H)-carboxamide]: in test [2], the activation at 3 µM stood at 75%.

The EC50 is the concentration giving half of the maximal effect. Take `Cc1ccc(CNC(=O)N2Cc3ccccc3N3CCN(Cc4ccccc4)CC3C2)o1` (centres unmarked) [Example 156, 3-benzyl-N-[(5-methyl-2-furyl)methyl]-1,2,3,4,4a,5-hexahydropyrazino[1,2-a][1,4]benzodiazepine-6(7H)-carboxamide]: in test [2], the EC50 worked out at 2.4 µM and the Emax was 152%.

For the molecule `CCN(CCOC)C(=O)N1Cc2ccccc2N2CCN(Cc3ccccc3)CC2C1` (centres unmarked) [Example 157, 3-benzyl-N-ethyl-N-(2-methoxyethyl)-1,2,3,4,4a,5-hexahydropyrazino[1,2-a][1,4]benzodiazepine-6(7H)-carboxamide], the activation at 3 µM in test [2] was 264%.

Regarding `CCN(CC)C(=O)N1Cc2ccccc2N2CCN(Cc3ccccc3)CC2C1` (centres unmarked) [Example 158, 3-benzyl-N,N-diethyl-1,2,3,4,4a,5-hexahydropyrazino[1,2-a][1,4]benzodiazepine-6(7H)-carboxamide], in test [2], the 50% effective concentration (EC50) turned out to be 1.02 µM and the Emax stood at 181%.

Regarding `O=C(Nc1nccs1)N1Cc2ccccc2N2CCN(Cc3ccccc3)CC2C1` (centres unmarked) [Example 159, 3-benzyl-N-(1,3-thiazol-2-yl)-1,2,3,4,4a,5-hexahydropyrazino[1,2-a][1,4]benzodiazepine-6(7H)-carboxamide], the activation at 3 µM in test [2] was found to be 64%.

Take `O=C(NCC1CC1)N1Cc2ccccc2N2CCN(Cc3ccccc3)CC2C1` (centres unmarked) [Example 160, 3-benzyl-N-(cyclopropylmethyl)-1,2,3,4,4a,5-hexahydropyrazino[1,2-a][1,4]benzodiazepine-6(7H)-carboxamide]: in test [2], the EC50 came out at 0.645 µM and the Emax worked out at 245%.

In the case of `CC(C)N1CCN(C(=O)N2Cc3ccccc3N3CCN(Cc4ccccc4)CC3C2)CC1` (centres unmarked) [Example 161, (3-benzyl-1,2,3,4,4a,5-hexahydropyrazino[1,2-a][1,4]benzodiazepin-6(7H)-yl)(4-isopropylpiperazin-1-yl)methanone], in test [2], the EC50 is 3.18 µM and the Emax was determined as 218%.

For the molecule `CC(C)CNC(=O)N1Cc2ccccc2N2CCN(Cc3ccccc3)CC2C1` (centres unmarked) [Example 162, 3-benzyl-N-isobutyl-1,2,3,4,4a,5-hexahydropyrazino[1,2-a][1,4]benzodiazepine-6(7H)-carboxamide], in test [2], the activation at 3 µM is 194%.

Take `O=C(NCc1cccnc1)N1Cc2ccccc2N2CCN(Cc3ccccc3)CC2C1` (centres unmarked) [Example 163, 3-benzyl-N-(pyridin-3-ylmethyl)-1,2,3,4,4a,5-hexahydropyrazino[1,2-a][1,4]benzodiazepine-6(7H)-carboxamide]: the activation at 3 µM in test [2] worked out at 183%.

As to `CN(C)CCCNC(=O)N1Cc2ccccc2N2CCN(Cc3ccccc3)CC2C1` (centres unmarked) [Example 164, 3-benzyl-N-[3-(dimethylamino)propyl]-1,2,3,4,4a,5-hexahydropyrazino[1,2-a][1,4]benzodiazepine-6(7H)-carboxamide], in test [2], the activation at 3 µM stood at 93%.

Turning to `CCCCN(CC#N)C(=O)N1Cc2ccccc2N2CCN(Cc3ccccc3)CC2C1` (centres unmarked) [Example 165, 3-benzyl-N-butyl-N-(cyanomethyl)-1,2,3,4,4a,5-hexahydropyrazino[1,2-a][1,4]benzodiazepine-6(7H)-carboxamide], in test [2], the activation at 3 µM is 251%.

In the case of `COCCCNC(=O)N1Cc2ccccc2N2CCN(Cc3ccccc3)CC2C1` (centres unmarked) [Example 166, 3-benzyl-N-(3-methoxypropyl)-1,2,3,4,4a,5-hexahydropyrazino[1,2-a][1,4]benzodiazepine-6(7H)-carboxamide], in test [2], the EC50 amounted to 0.765 µM and the Emax worked out at 181%.

For the molecule `COCCNC(=O)N1Cc2ccccc2N2CCN(Cc3ccccc3)CC2C1` (centres unmarked) [Example 167, 3-benzyl-N-(2-methoxyethyl)-1,2,3,4,4a,5-hexahydropyrazino[1,2-a][1,4]benzodiazepine-6(7H)-carboxamide], the activation at 3 µM in test [2] stood at 63%.

Consider `O=C(NCc1ccccn1)N1Cc2ccccc2N2CCN(Cc3ccccc3)CC2C1` (centres unmarked) [Example 168, 3-benzyl-N-(pyridin-2-ylmethyl)-1,2,3,4,4a,5-hexahydropyrazino[1,2-a][1,4]benzodiazepine-6(7H)-carboxamide], for which the activation at 3 µM in test [2] turned out to be 259%.

Regarding `O=C(NC1CCC1)N1Cc2ccccc2N2CCN(Cc3ccccc3)CC2C1` (centres unmarked) [Example 169, 3-benzyl-N-cyclobutyl-1,2,3,4,4a,5-hexahydropyrazino[1,2-a][1,4]benzodiazepine-6(7H)-carboxamide], in test [2], the EC50 was found to be 0.816 µM and the Emax amounted to 173%.

Turning to `CCCN(C)C(=O)N1Cc2ccccc2N2CCN(Cc3ccccc3)CC2C1` (centres unmarked) [Example 170, 3-benzyl-N-methyl-N-propyl-1,2,3,4,4a,5-hexahydropyrazino[1,2-a][1,4]benzodiazepine-6(7H)-carboxamide], in test [2], the activation at 3 µM was 273%.

Turning to `O=C(N1CCCCC1)N1Cc2ccccc2N2CCN(Cc3ccccc3)CC2C1` (centres unmarked) [Example 171, (3-benzyl-1,2,3,4,4a,5-hexahydropyrazino[1,2-a][1,4]benzodiazepin-6(7H)-yl)(piperidin-1-yl)methanone], in test [2], the concentration giving a half-maximal response (EC50) turned out to be 2.45 µM and the Emax amounted to 251%.

Take `O=C1C2CNCCN2c2ccccc2CN1CC1CC1` (centres unmarked) [Example 172, 6-(cyclopropylmethyl)-2,3,4,4a,6,7-hexahydropyrazino[1,2-a][1,4]benzodiazepin-5(1H)-one]: the activation at 3 µM in test [2] came to 0%.

For the molecule `CN1CCN2c3ccccc3CN(C3CCN(C(=O)c4ccccc4)CC3)CC2C1` (centres unmarked) [Example 173, [4-(3-methyl-1,2,3,4,4a,5-hexahydropyrazino[1,2-a][1,4]benzodiazepin-6(7H)-yl)piperidin-1-yl](phenyl)methanone], the activation at 3 µM in test [2] worked out at 68%.

For the molecule `CN1CCN2c3ccccc3CN(C(=O)c3ccccc3Cl)CC2C1` (centres unmarked) [Example 174, (2-chlorophenyl)(3-methyl-1,2,3,4,4a,5-hexahydropyrazino[1,2-a][1,4]benzodiazepin-6(7H)-yl)methanone], the activation at 3 µM in test [2] stood at 41%.

`CN1CCN2c3ccccc3CN(C(=O)c3cccc(Cl)c3)CC2C1` (centres unmarked) [Example 175, (3-chlorophenyl)(3-methyl-1,2,3,4,4a,5-hexahydropyrazino[1,2-a][1,4]benzodiazepin-6(7H)-yl)methanone]: the activation at 3 µM in test [2] came out at 40%.

As for `CN1CCN2c3ccccc3CN(C(=O)c3ccc(Cl)cc3)CC2C1` (centres unmarked) [Example 176, (4-chlorophenyl)(3-methyl-1,2,3,4,4a,5-hexahydropyrazino[1,2-a][1,4]benzodiazepin-6(7H)-yl)methanone], the activation at 3 µM in test [2] is 40%.

Take `Cc1ccc2c(c1)c1c(n2CCc2ccc(C)nc2)CCN(C)C1` [dimebolin]: in test [3], the “clinical course of disease (ADAS-Cog, improvement over baseline)” value is “significant improvement in the clinical course of disease”.

Source of the values: US9133206B2, “Benzodiazepine and pyridodiazepine derivatives” (AbbVie Inc., priority 2010, dated 2015).
